Where two headings read alike, the source gives them in different places.
Experiments:
[1] = biological target: HDAC1 (Homo sapiens, UniProt Q13547); test: HDAC enzyme inhibitory activity, FRET method; assay type: biochemical
Experimental: (§2) The compounds of the present disclosure were assayed for enzyme inhibitory activity against various subtypes of HDAC enzymes by the FRET method. The various subtypes of HDAC enzymes were obtained either through purification or direct purchase of assay kits.
(§3) The specific method was as follows: The enzyme was added to a 384-well plate, and a reaction buffer was added to the control well. Serially diluted DMSO sample solutions were added to the reaction wells, and the plate was incubated at room temperature for 15 min. Then a chromogenic agent was added to stop the reaction, and fluorescence was generated. The fluorescence intensity was measured using an EnVision multi-label microplate reader (excitation: 355 nm, emission: 460 nm). The endpoint value was read after the color development reached stability. The inhibition IC50 of the compounds was calculated using GraphPad Prism4 software relative to DMSO.

[2] = biological target: HDAC2 (Homo sapiens, UniProt Q92769); test: HDAC enzyme inhibitory activity, FRET method; assay type: biochemical
Experimental: as §2, §3

[3] = biological target: HDAC3 (Homo sapiens, UniProt O15379); test: HDAC enzyme inhibitory activity, FRET method; assay type: biochemical
Chain of HDAC3 (O15379 whole entry, species assumed): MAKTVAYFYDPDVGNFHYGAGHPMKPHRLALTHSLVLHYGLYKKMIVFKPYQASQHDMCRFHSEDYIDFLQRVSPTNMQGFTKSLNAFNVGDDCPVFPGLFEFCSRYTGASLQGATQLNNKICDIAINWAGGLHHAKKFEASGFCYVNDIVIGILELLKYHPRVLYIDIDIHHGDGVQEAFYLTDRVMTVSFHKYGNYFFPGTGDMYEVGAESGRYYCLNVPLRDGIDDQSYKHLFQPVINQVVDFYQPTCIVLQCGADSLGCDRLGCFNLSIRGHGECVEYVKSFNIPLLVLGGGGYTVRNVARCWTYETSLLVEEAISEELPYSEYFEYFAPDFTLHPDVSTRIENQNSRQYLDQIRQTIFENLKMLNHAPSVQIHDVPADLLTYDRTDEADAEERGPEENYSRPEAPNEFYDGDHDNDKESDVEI
Chain of HDAC3 (Q9Y618 395-489 partner limits assumed, species assumed): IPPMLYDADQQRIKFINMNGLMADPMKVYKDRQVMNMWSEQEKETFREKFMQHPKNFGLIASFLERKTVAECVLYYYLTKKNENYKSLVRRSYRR

[4] = system: Jurkat cell; test: Inhibition of cell proliferation (CTG, intracellular ATP); assay type: cell-based; conditions: 72 h
Experimental: Jurkat or 293T cells were seeded into a 96-well plate at 3000 cells/well. After overnight adherence culture, the serially diluted compound in DMSO was added. After 72 h, the intracellular ATP level was determined by CTG. The IC50 for the inhibition of cell proliferation by the compounds was calculated compared to the DMSO group. Table 7. Inhibitory activity of compounds of the present disclosure against Jurkat/293T cell proliferation (IC50, µM)

[5] = system: Acetyl lysine; test: Intracellular acetyl lysine level by ELISA in HeLa cells; assay type: cell-based; conditions: 24 h of treatment
Experimental: (§1) HeLa cells were seeded into a 96-well plate at 20000 cells/well. After overnight adherence culture, the serially diluted compound was added. After 24 h of treatment, intracellular levels of acetyl lysine and H3K 27 acetyl lysine were quantified by ELISA. Table 8. Effect of compound of the present disclosure on levels of acetyl lysine and H3K 27 acetyl lysine

[6] = system: H3K 27 Acetyl lysine; test: Intracellular H3K 27 acetyl lysine level by ELISA in HeLa cells; assay type: cell-based; conditions: 24 h of treatment
Experimental: as §1

[7] = Stability in liver microsomes; assay type: in vitro ADME; conditions: for T1/2: 1 µM compound, 37 °C, NADPH regeneration system; for Clint: 1 µM
Experimental: After the 1 µM compound was individually incubated at 37 °C for various durations with […] liver microsomes from humans, monkeys, beagles, rats, or mice in the presence of an NADPH regeneration system, LC-MS-MS was used to analyze the remaining amount of the compound, and T1/2 was calculated. Table 10. Evaluation results of stability of compounds of the present disclosure in human and mouse liver microsomes

[8] = biological target: T1, HDAC10 (Homo sapiens, UniProt Q969S8); conditions: read-out: IC50 HDAC subtype 10; Table 6
T1 sequence (Q969S8 1-669): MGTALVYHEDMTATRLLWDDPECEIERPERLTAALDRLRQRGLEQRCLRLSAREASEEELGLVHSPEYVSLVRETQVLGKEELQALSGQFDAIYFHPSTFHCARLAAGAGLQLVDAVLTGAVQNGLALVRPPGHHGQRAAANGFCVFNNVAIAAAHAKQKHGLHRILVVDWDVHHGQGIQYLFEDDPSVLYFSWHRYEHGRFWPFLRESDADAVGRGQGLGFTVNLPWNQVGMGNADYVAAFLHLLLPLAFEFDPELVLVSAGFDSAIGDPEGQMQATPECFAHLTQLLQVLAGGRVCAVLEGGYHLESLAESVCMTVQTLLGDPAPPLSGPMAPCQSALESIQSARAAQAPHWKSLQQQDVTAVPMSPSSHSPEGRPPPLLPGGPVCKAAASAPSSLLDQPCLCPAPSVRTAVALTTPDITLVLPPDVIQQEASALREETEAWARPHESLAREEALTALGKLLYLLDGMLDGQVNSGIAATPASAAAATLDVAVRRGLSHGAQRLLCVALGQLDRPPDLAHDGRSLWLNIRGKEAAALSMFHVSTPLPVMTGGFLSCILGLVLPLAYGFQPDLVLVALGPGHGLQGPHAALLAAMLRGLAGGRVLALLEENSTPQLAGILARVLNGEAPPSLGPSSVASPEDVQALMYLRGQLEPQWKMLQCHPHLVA
Experimental: as §2, §3

[9] = system: Mouse colon cancer MC38 cells; conditions: MC-38
Experimental: Female C57BL6N mice (aged 6 weeks, 18-22 g) were provided by Vital River Laboratory Animal Technology Co., Ltd. (China) and used one week after quarantine and acclimation. All animals were kept in a room at 23±2 °C with a relative humidity of 50±5%, artificial lighting was provided from 08:00 to 20:00 every day, and the air was exchanged 13-18 times per hour.
Mouse colon cancer MC38 cells were cultured conventionally in 1640 medium containing 10% fetal bovine serum in an incubator at 37 °C with 5% CO2. After being subcultured, the cells were collected when they reached the desired amount. The C57BL6N mice were subcutaneously injected with 2 × 10^6 MC38 cells on the right side to form tumors. After the tumors grew to about 100 mm^3, the animals were randomly grouped for administration. Tumor volumes were measured with a caliper on day 3, day 7, day 10, day 14, day 17, and day 21 after the administration. The ability of the compounds to inhibit tumor growth was evaluated according to the tumor growth inhibition rate (TGI) = 1 - (tumor volume on day 28 in treatment group - tumor volume on day 1 in treatment group)/(tumor volume on day 28 in control group - tumor volume on day 1 in control group). The toxicity of the compounds was evaluated according to the body weight and state of the mice.
The groups were as follows: 1) solvent control group; 2) PD-1+Reg group; 3) Compound 1 group; 4) Reference Compound group; 5) compound 1 (10mg/kg) and PD-1+Reg Combination group; 6) compound 1 (30mg/kg) and PD-1+Reg Combination group; 7) compound 1 (90mg/kg) and PD-1+Reg Combination group; 8) Reference Compound (10mg/kg) and PD-1+Reg Combination group; 9) Reference Compound (30mg/kg) and PD-1+Reg Combination group; 10) Reference Compound (90mg/kg) and PD-1+Reg Combination group, with 6 mice per group.
Reg represents Regorafenib PD-1 represents an anti-PD-1 antibody; IV represents administration via intravenous injection; PO represents oral administration; QD represents once-daily administration; QW represents once-weekly administration; CR represents complete remission (complete disappearance of the tumor after the dosing cycle is completed); PR represents partial response (tumor volume reduction exceeding 30% relative to the initial volume upon completion of the administration cycle); SD represents stable disease (tumor volume reduction or growth not exceeding 30% relative to the initial volume upon completion of the administration cycle); Died represents mouse died before the dosing cycle is completed; Administration period* is once daily (QD) for 10 consecutive days, followed by a 16-day off-treatment period; the once-weekly (QW) regimen is administered only on Day 1 and Day 8.

[10] = system: Mouse colon cancer CT-26 cells; conditions: for Tumor response, number of mice (CR/PR/SD): 6 mice per group; for TGI(%): QD for 14 consecutive days, PO
Experimental: Female BALB/c mice (aged 6 weeks, 18-22 g) were provided by Vital River Laboratory Animal Technology Co., Ltd. (China) and used one week after quarantine and acclimation. All animals were kept in a room at 23±2 °C with a relative humidity of 50±5%, artificial lighting was provided from 08:00 to 20:00 every day, and the air was exchanged 13-18 times per hour.
Mouse colon cancer CT-26 cells were cultured conventionally in 1640 medium containing 10% fetal bovine serum in an incubator at 37 °C with 5% CO2. After being subcultured, the cells were collected when they reached the desired amount. The BALB/c mice were subcutaneously injected with 2 × 10^5 CT-26 cells on the right side to form tumors. After the tumors grew to about 100 mm^3, the animals were randomly grouped for administration. Tumor volumes were measured with a caliper on day 3, day 7, day 10, day 14, day 17, and day 21 after the administration. The ability of the compounds to inhibit tumor growth was evaluated according to the tumor growth inhibition rate (TGI) = 1 - (tumor volume on day 28 in treatment group - tumor volume on day 1 in treatment group)/(tumor volume on day 28 in control group - tumor volume on day 1 in control group). The toxicity of the compounds was evaluated according to the body weight and state of the mice.

Chain of HDAC1 (Q13547 whole entry, species assumed): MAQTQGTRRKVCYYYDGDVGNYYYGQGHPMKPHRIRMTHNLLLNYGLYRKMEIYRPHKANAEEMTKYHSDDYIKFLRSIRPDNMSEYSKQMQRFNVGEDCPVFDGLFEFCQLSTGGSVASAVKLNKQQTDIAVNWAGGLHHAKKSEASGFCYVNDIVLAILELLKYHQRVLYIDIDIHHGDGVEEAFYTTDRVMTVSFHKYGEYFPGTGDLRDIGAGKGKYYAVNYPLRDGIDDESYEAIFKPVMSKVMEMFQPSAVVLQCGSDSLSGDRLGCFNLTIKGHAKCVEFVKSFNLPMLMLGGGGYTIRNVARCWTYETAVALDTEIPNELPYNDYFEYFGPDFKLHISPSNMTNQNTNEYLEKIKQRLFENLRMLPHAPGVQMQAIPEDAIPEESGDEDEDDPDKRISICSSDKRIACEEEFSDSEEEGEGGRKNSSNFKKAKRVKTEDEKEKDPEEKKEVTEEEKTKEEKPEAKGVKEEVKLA
Chain of HDAC2 (Q92769 whole entry, species assumed): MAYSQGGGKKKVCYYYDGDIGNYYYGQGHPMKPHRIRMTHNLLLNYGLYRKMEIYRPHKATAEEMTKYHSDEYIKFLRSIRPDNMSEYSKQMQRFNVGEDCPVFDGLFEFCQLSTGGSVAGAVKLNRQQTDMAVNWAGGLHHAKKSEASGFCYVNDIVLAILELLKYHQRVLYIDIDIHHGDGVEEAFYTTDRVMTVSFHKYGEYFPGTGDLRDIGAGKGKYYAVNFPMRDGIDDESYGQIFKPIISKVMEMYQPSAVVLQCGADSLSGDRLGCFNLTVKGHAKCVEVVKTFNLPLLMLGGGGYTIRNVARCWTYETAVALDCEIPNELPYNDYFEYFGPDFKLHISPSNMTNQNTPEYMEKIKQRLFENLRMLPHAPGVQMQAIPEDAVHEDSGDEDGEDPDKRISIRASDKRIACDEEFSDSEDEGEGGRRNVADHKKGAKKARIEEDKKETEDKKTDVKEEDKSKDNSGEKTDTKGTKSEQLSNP

CS(=O)(=O)Nc1ccc(C(=O)Nc2cc(-c3ccc(F)cc3)ccc2N)cc1 [Reference Compound, N-(4-amino-4'-fluoro-[1,1'-biphenyl]-3-yl)-4-(S-methylsulfonamido) benzamide, reference compound]
IC50 ([1]; Table 5, read-out: IC50 HDAC1): 30 to 300 nM
IC50 ([1]; Table 6, read-out: IC50 HDAC subtype 1): 44.4 nM
IC50 ([2]; Table 5, read-out: IC50 HDAC2): 30 to 300 nM
IC50 ([2]; Table 6, read-out: IC50 HDAC subtype 2): 178 nM
IC50 ([3]; Table 5, read-out: IC50 HDAC3): > 3000 nM
IC50 ([3]; Table 6, read-out: IC50 HDAC subtype 3): 8280 nM
IC50 [4]: 1940 nM
Acetyl lysine Maximum (%) [5]: 350%
Acetyl lysine Minimum effective concentration [5]: 80 nM
H3K 27 Acetyl lysine Maximum (%) [6]: 190%
H3K 27 Acetyl lysine Minimum effective concentration [6]: 80 nM
Clliver ([7]; Human liver microsomes): 11.68 mL/min/kg
T1/2 ([7]; Human liver microsomes): 1.082 h
Clint ([7]; Human liver microsomes): 26.78 mL/min/kg
Clliver ([7]; Mouse liver microsomes): 9.20 mL/min/kg
T1/2 ([7]; Mouse liver microsomes): 8.874 h
Clint ([7]; Mouse liver microsomes): 10.25 mL/min/kg
IC50 [8]: 83.2 nM
Change in body weight(%) ([9]; monotherapy 90 mg/kg QD PO): 17.04 ± 1.54%
Tumor response, number of mice (CR/PR/SD) ([9]; monotherapy 90 mg/kg QD PO, CR complete remission, PR partial response, SD stable disease, 6 mice per group): 1PR
TGI(%) ([9]; monotherapy 90 mg/kg, QD for 10 consecutive days, PO): 73.90%
Change in body weight(%) ([10]; monotherapy 30 mg/kg QD PO): 4.73±1.54%
Tumor response, number of mice (CR/PR/SD) ([10]; monotherapy 30 mg/kg QD PO): 1PR
TGI(%) ([10]; monotherapy 30 mg/kg): 56.10%
Change in body weight(%) ([10]; monotherapy 90 mg/kg QD PO): -3.53±2.89%
Tumor response, number of mice (CR/PR/SD) ([10]; monotherapy 90 mg/kg QD PO): 1PR+2SD
TGI(%) ([10]; monotherapy 90 mg/kg): 95.93%

Source: patent publication EP4714938A1, “HDAC1/2 SELECTIVE INHIBITOR AND USE THEREOF” (Wigen Biomedicine Technology (Shanghai) Co., Ltd., priority 2023, dated 2024)
